The values that follow come from patent US5283255A, “Wavelength-specific cytotoxic agents” (The University of British Columbia, priority 1992, dated 1994).

In one data set the test system is M-1 rhabdomycoscercoma. The data set is described as follows: In vivo photosensitization, M-1 rhabdomyosarcoma system in DBA/J2 mice. On the procedure: Studies of potential photosensitizers were performed using the M-1 rhabdomycoscercoma system in DBA/J2 mice. The compositions to be tested were diluted to a concentration of […] in PBS from a stock solution in DMSO at 8 mg/ml (except Photofrin® II, which was diluted directly from the clinical vial). […]

The nature of data set [1]: Solubility on dilution for addition to blood. Particulars: DMSO stock 8 mg/ml diluted into PBS.
For a further data set, the system named is skin. The experiment in a line: Skin sensitivity assay in mice bearing P815 tumors.
For the next data set, the system named is VSV. The data set is described as follows: microbe, parasite or virus in culture. Particulars: Vesicular stomatitis virus, light or radiation study, 2 h, read-out: viral kill, 2 μg/ml; 1 ml; 2 h; 57.6 J/cm^2. Details: species or system Vesicular stomatitis virus.
The subject of the next data set is target cells. The data set is described as follows: In vitro evaluation of BPD-DA, -MA, -DB and -MB (as in Example 1). The format is cell-based. On the procedure: For the "affinity" assay, in the dark, 100 μl of the target cell suspension and 100 μl of the test or control compound were mixed. "Labeling" was allowed to continue for one hour at 4° C., and labeled cells were washed in the dark three times with 3 ml medium each time and resuspended in fresh medium. The resuspended cells were then subjected to light exposure at 300-750 nanometers for 30 minutes.
In a "direct" assay the target cells were irradiated immediately upon addition of the test or control compound.
The effect of irradiation was estimated using methods appropriate to the target cells.
The four compounds shown in FIG. 2, wherein R^1 and R^2 are carbomethoxy, were tested in vitro as described in Example 1.

Another data set deals with tumor cells. The experiment in a line: Alternate in vivo assay: kill of tumor cells from dosed mice (MTT). Particulars: 33 μg/mouse IV; light dose 5.7 Jo; 180 min.

Protocol for skin: Mice bearing P815 tumors were shaved and injected with equivalent amounts of photosensitizer, and exposed to 72 Jo/cm^2 (80 mw/cm^2 -15 min-full spectrum) at various time intervals. Skin biopsies were taken at 24 and 48 hours after light irradiation and visual evaluations were made blind.

Regarding `C=Cc1c(C)c2cc3nc(cc4[nH]c(cc5nc(cc1[nH]2)C1(C)C5=CC=C(C(=O)OC)C1C(=O)OC)c(C)c4CCC(=O)O)C(CCC(=O)OC)=C3C` (stereo not shown) [BPD-MB], the “Number of Days Tumor Free (PR)” value in the data set with M-1 rhabdomycoscercoma (Table 6, 567 Jo/cm^2, IV 24 h before light) stood at 10.6 days. For the same compound, the “Cures (tumor regressed and tumor-free for 30 days)” value in the data set with M-1 rhabdomycoscercoma (Table 6, 567 Jo/cm^2, 8 animals per group) was 3. Further, the “Days Tumor-free” value with M-1 rhabdomycoscercoma (Table 7, light dose 378 To/cm^3) was 8.7 days. Moreover, in the data set on M-1 rhabdomycoscercoma (Table 7, light dose 378 To/cm^3, 9-15 animals), the “Number of Cures” value is given as 6. For the same compound, the “treatment required to achieve solubility” value in data set [1] is recorded as “required a 20-minute sonication in ultrasonic bath to achieve solubility”. The skin photosensitizing activity result in the data set on skin (72 Jo/cm^2, biopsies 24 and 48 h after light) was “to a lesser extent”. The “time dependence of skin photosensitizing activity” value in the data set on skin (light at various intervals after drug) was “only present when light treatment was given 3 hours post drug administration”. The log reduction at 2 µg/mL in the data set on VSV was found to be 4. The in vitro photosensitivity result in the data set on target cells is reported as “somewhat more active”. In the data set with tumor cells, the “% Kill” value is 25.2%.
